From PubChem BioAssay AID330 (DTP/NCI, 2004)
“And” between values parts separate entries of the source, which are not always exact repeats. Equal entries are not always repeated. Toxic doses and inconclusive results are not listed.

Test system: P388 leukemia ip, CD2F1 mice, survival T/C
Experiment: NCI In Vivo Anticancer Drug Screen. Data for tumor model P388 Leukemia (intraperitoneal) in CD2F1 (CDF1) mice
Settings: endpoint: median survival time, higher = longer survival
Outline: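 Mice carrying the transplanted tumor received test compound or vehicle. Survival was recorded in each group, and the value is the treated-group measurement divided by that of the vehicle-treated control group.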

[1] = dose: 60.0 mg/kg/injection, schedule: Q01DX005 (ip), vehicle: saline
[2] = dose: 120.0 mg/kg/injection, schedule: Q01DX005 (ip), vehicle: saline
[3] = dose: 240.0 mg/kg/injection, schedule: Q01DX005 (ip), vehicle: saline
[4] = dose: 100.0 mg/kg/injection, schedule: Q01DX001 (ip), vehicle: Klucel (hydroxypropylcellulose) (HPC)
[5] = dose: 200.0 mg/kg/injection, schedule: Q01DX001 (ip), vehicle: Klucel (hydroxypropylcellulose) (HPC)
[6] = dose: 400.0 mg/kg/injection, schedule: Q01DX001 (ip), vehicle: Klucel (hydroxypropylcellulose) (HPC)
[7] = dose: 60.0 mg/kg/injection, schedule: Q01DX005 (ip), vehicle: saline with Tween-80
[8] = dose: 120.0 mg/kg/injection, schedule: Q01DX005 (ip), vehicle: saline with Tween-80
[9] = dose: 240.0 mg/kg/injection, schedule: Q01DX005 (ip), vehicle: saline with Tween-80
[10] = dose: 50.0 mg/kg/injection, schedule: Q01DX005 (ip), vehicle: saline with Tween-80
[11] = dose: 100.0 mg/kg/injection, schedule: Q01DX005 (ip), vehicle: saline with Tween-80

With CN(C)C(=O)N1OC2CCC1CC2 the T/C [1] was 100 % of control, the T/C [2] was 100 % of control and the T/C [3] was 100 % of control.
In the case of CCCCCCCCCCCOCC(=O)OC, the T/C (dose: 50.0 mg/kg/injection, schedule: Q01DX009 (ip), vehicle: saline with Tween-80) is reported as 99 % of control, the T/C (dose: 100.0 mg/kg/injection, schedule: Q01DX009 (ip), vehicle: saline with Tween-80) is reported as 101 % of control and the T/C (dose: 200.0 mg/kg/injection, schedule: Q01DX009 (ip), vehicle: saline with Tween-80) is reported as 100 % of control.
For C[n+]1c(-c2cc(Cl)cc(Cl)c2)c2cc(N)ccc2c2ccccc21, the T/C (dose: 3.13 mg/kg/injection, schedule: Q01DX009 (ip), vehicle: water) was 120 % of control, the T/C (dose: 6.25 mg/kg/injection, schedule: Q01DX009 (ip), vehicle: water) was 122 % of control and the T/C (dose: 12.5 mg/kg/injection, schedule: Q01DX009 (ip), vehicle: water) was 114 % of control. For the same compound, the T/C (dose: 25.0 mg/kg/injection, schedule: Q01DX009 (ip), vehicle: water) was 102 % of control.
With O=C1c2ccccc2C(=O)N1c1ccccc1 the T/C [4] was 99 % of control, the T/C [5] was 100 % of control and the T/C [6] was 100 % of control.
CC(C)[Si]1(C(C)C)N[Si](C(C)C)(C(C)C)N1 was tested, and the T/C (dose: 15.0 mg/kg/injection, schedule: Q01DX005 (ip), vehicle: saline) was 115 % of control, the T/C (dose: 30.0 mg/kg/injection, schedule: Q01DX005 (ip), vehicle: saline) was 105 % of control and the T/C [1] was 98 % of control. The T/C [2] was 106 % of control and the T/C [3] was 97 % of control.
In the case of Cc1ccc(N=Nc2c(-c3ccccc3)nn(C(=S)S)c2C)cc1, the T/C (dose: 25.0 mg/kg/injection, schedule: Q04DX002 (ip), vehicle: Klucel (hydroxypropylcellulose) (HPC)) is reported as 97 % of control, the T/C (dose: 50.0 mg/kg/injection, schedule: Q04DX002 (ip), vehicle: Klucel (hydroxypropylcellulose) (HPC)) is reported as 107 % of control and the T/C (dose: 100.0 mg/kg/injection, schedule: Q04DX002 (ip), vehicle: Klucel (hydroxypropylcellulose) (HPC)) is reported as 105 % of control. For the same compound, the T/C (dose: 200.0 mg/kg/injection, schedule: Q04DX002 (ip), vehicle: Klucel (hydroxypropylcellulose) (HPC)) was 96 % of control and the T/C (dose: 400.0 mg/kg/injection, schedule: Q04DX002 (ip), vehicle: Klucel (hydroxypropylcellulose) (HPC)) was 107 % of control.
In the case of O=C(NC(CC(NC(=O)OCc1ccccc1)NC(=O)OCc1ccccc1)NC(=O)OCc1ccccc1)OCc1ccccc1, the T/C [7] is reported as 89 % of control, the T/C [8] is reported as 91 % of control and the T/C [9] is reported as 103 % of control.
For CC(=NCCCCN=C(C)c1cc(C)cc(Br)c1O)c1cc(C)cc(Br)c1O.[Co], the T/C (dose: 6.25 mg/kg/injection, schedule: Q01DX005 (ip), vehicle: Klucel (hydroxypropylcellulose) (HPC)) was 99 % of control and 104 % of control, the T/C (dose: 12.5 mg/kg/injection, schedule: Q01DX005 (ip), vehicle: Klucel (hydroxypropylcellulose) (HPC)) was 100 % of control and 106 % of control and the T/C (dose: 25.0 mg/kg/injection, schedule: Q01DX005 (ip), vehicle: Klucel (hydroxypropylcellulose) (HPC)) was 101 % of control and 109 % of control and 283 % of control. For the same compound, the T/C (dose: 50.0 mg/kg/injection, schedule: Q01DX005 (ip), vehicle: Klucel (hydroxypropylcellulose) (HPC)) was 98 % of control and 109 % of control and 283 % of control, the T/C (dose: 100.0 mg/kg/injection, schedule: Q01DX005 (ip), vehicle: Klucel (hydroxypropylcellulose) (HPC)) was 106 % of control and 97 % of control and the T/C (dose: 200.0 mg/kg/injection, schedule: Q01DX005 (ip), vehicle: Klucel (hydroxypropylcellulose) (HPC)) was 97 % of control.
In the case of CCCN(C)CC(C)(O)CNc1cc(OC)cc2cccnc12 (stereo not given), the T/C (dose: 12.5 mg/kg/injection, schedule: Q01DX005 (ip), vehicle: saline) is reported as 100 % of control, the T/C (dose: 25.0 mg/kg/injection, schedule: Q01DX005 (ip), vehicle: saline) is reported as 95 % of control and the T/C [10] is reported as 106 % of control. For the same compound, the T/C (dose: 50.0 mg/kg/injection, schedule: Q01DX005 (ip), vehicle: saline) was 99 % of control.
For O=c1oc2c(c(N(c3ccccc3)c3ccccc3)c1Cl)Cc1ccccc1CC2, the T/C (dose: 50.0 mg/kg/injection, schedule: Q04DX003 (ip), vehicle: Klucel (hydroxypropylcellulose) (HPC)) was 95 % of control, the T/C (dose: 100.0 mg/kg/injection, schedule: Q04DX003 (ip), vehicle: Klucel (hydroxypropylcellulose) (HPC)) was 92 % of control and the T/C (dose: 200.0 mg/kg/injection, schedule: Q04DX003 (ip), vehicle: Klucel (hydroxypropylcellulose) (HPC)) was 91 % of control.
CC(C)NC(=O)OCc1c(COC(=O)NC(C)C)c(-c2ccc(F)c(F)c2)n2c1CCC2 was tested, and the T/C (dose: 3.13 mg/kg/injection, schedule: Q01DX009 (ip), vehicle: distilled water + Tween-80) was 151 % of control, the T/C (dose: 6.25 mg/kg/injection, schedule: Q01DX009 (ip), vehicle: distilled water + Tween-80) was 160 % of control and the T/C (dose: 12.5 mg/kg/injection, schedule: Q01DX009 (ip), vehicle: distilled water + Tween-80) was 172 % of control and 178 % of control. The T/C (dose: 25.0 mg/kg/injection, schedule: Q01DX009 (ip), vehicle: distilled water + Tween-80) was 123 % of control and 211 % of control and the T/C (dose: 50.0 mg/kg/injection, schedule: Q01DX009 (ip), vehicle: distilled water + Tween-80) was 109 % of control and 92 % of control.
With O=C(N1C2c3ccsc3[C@@H](O)C21)C(F)(F)F (stereo not given in full) the T/C [10] was 88 % of control, the T/C [11] was 95 % of control and the T/C (dose: 200.0 mg/kg/injection, schedule: Q01DX005 (ip), vehicle: saline with Tween-80) was 100 % of control.
For [BH]n1cccn1.[CH3][Sn]([CH3])[N]=C=S, the T/C (dose: 100.0 mg/kg/injection, schedule: Q04DX003 (ip), vehicle: saline) was 117 % of control and the T/C (dose: 200.0 mg/kg/injection, schedule: Q04DX003 (ip), vehicle: saline) was 117 % of control.
For O=S=NSc1c(F)c(F)c(F)c(F)c1F, the T/C [10] was 104 % of control and the T/C [11] was 111 % of control.
For CCCCCCCCCCCCCCCC(=O)N(CCCCN(C)C)CCCCN(C)C, the T/C (dose: 1.0 mg/kg/injection, schedule: Q01DX009 (ip), vehicle: saline) was 86 % of control and 95 % of control, the T/C (dose: 2.0 mg/kg/injection, schedule: Q01DX009 (ip), vehicle: saline) was 97 % of control and the T/C (dose: 4.0 mg/kg/injection, schedule: Q01DX009 (ip), vehicle: saline) was 97 % of control. The T/C (dose: 8.0 mg/kg/injection, schedule: Q01DX009 (ip), vehicle: saline) was 103 % of control.
COc1cccc2c1C(=O)c1c(OC)c(CSC(=N)N)cc(OC)c1C2=O was tested, and the T/C (dose: 2.0 mg/kg/injection, schedule: Q01DX009 (ip), vehicle: water) was 99 % of control, the T/C (dose: 4.0 mg/kg/injection, schedule: Q01DX009 (ip), vehicle: water) was 104 % of control and the T/C (dose: 8.0 mg/kg/injection, schedule: Q01DX009 (ip), vehicle: water) was 104 % of control. The T/C (dose: 16.0 mg/kg/injection, schedule: Q01DX009 (ip), vehicle: water) was 117 % of control, the T/C (dose: 32.0 mg/kg/injection, schedule: Q01DX009 (ip), vehicle: water) was 121 % of control and the T/C (dose: 64.0 mg/kg/injection, schedule: Q01DX009 (ip), vehicle: water) was 111 % of control.
With COc1ccc(/C=N\Nc2cc(C)nc3ccc(C4CCCCC4)cc23)c2ccccc12 the T/C [7] was 99 % of control, the T/C [8] was 104 % of control and the T/C [9] was 93 % of control.
In the case of CC(C)SC(=O)C=C(c1ccccc1)c1ccccc1, the T/C [4] is reported as 95 % of control, the T/C [5] is reported as 96 % of control and the T/C [6] is reported as 100 % of control.
For OC[P+](CO)(CO)CO, the T/C (dose: 6.25 mg/kg/injection, schedule: Q01DX005 (ip), vehicle: saline with Tween-80) was 117 % of control and 96 % of control, the T/C (dose: 12.5 mg/kg/injection, schedule: Q01DX005 (ip), vehicle: saline with Tween-80) was 114 % of control and 96 % of control and the T/C (dose: 25.0 mg/kg/injection, schedule: Q01DX005 (ip), vehicle: saline with Tween-80) was 95 % of control. The T/C [10] was 104 % of control and 122 % of control.
With CCOC(=O)CCCCCCNC(=O)N1c2c(nc(N)[nH]c2=O)NCC1CNc1ccc(C(=O)NC(CCC(=O)O)C(=O)O)cc1 (stereo not given) the T/C (dose: 50.0 mg/kg/injection, schedule: Q01DX001 (ip), vehicle: sodium bicarbonate) was 106 % of control, the T/C (dose: 100.0 mg/kg/injection, schedule: Q01DX001 (ip), vehicle: sodium bicarbonate) was 100 % of control and the T/C (dose: 200.0 mg/kg/injection, schedule: Q01DX001 (ip), vehicle: sodium bicarbonate) was 100 % of control.
In the case of O=c1cc(Nc2ccc(Br)cc2)[nH]c(=O)[nH]1, the T/C [7] is reported as 94 % of control, the T/C [8] is reported as 100 % of control and the T/C [9] is reported as 102 % of control.
For CCOC(=O)c1c[nH]n(Cc2ccccc2)c1=O, the T/C [7] was 100 % of control, the T/C [8] was 100 % of control and the T/C [9] was 95 % of control.
